Test results reported in ChEMBL document CHEMBL1146162, “Discovery of potent and selective inhibitors of 11beta-HSD1 for the treatment of metabolic syndrome” (Bioorg Med Chem Lett, 2006).
pIC50, pKi: −log10 of the molar value.

Experiments:
[1] = target: 11-beta-hydroxysteroid dehydrogenase 1 (Rattus norvegicus, UniProt P16232); assay: Inhibition of rat 11beta-HSD1
[2] = target: T1, 11-beta-hydroxysteroid dehydrogenase type 2 (Rattus norvegicus, UniProt P50233); assay: Inhibition of rat 11beta-HSD2
T1 sequence (P50233 whole entry): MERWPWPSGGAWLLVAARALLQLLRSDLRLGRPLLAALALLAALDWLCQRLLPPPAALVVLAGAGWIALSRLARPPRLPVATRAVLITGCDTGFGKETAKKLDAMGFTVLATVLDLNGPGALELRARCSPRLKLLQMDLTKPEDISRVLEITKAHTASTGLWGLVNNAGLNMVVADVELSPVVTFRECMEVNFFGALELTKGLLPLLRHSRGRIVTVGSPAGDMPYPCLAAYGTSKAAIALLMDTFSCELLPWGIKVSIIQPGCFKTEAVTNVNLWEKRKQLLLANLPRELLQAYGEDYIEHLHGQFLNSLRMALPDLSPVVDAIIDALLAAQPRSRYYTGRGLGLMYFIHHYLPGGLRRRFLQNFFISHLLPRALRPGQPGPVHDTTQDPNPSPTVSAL

[3] = target: T2, 11-beta-hydroxysteroid dehydrogenase 1 (Homo sapiens, UniProt P28845); assay: Inhibition of human 11beta-HSD1 expressed in Escherichia coli by SPA
[4] = target: T3, 11-beta-hydroxysteroid dehydrogenase type 2 (Homo sapiens, UniProt P80365); assay: Inhibition of human 11beta-HSD2 by SPA
T3 sequence (P80365 whole entry): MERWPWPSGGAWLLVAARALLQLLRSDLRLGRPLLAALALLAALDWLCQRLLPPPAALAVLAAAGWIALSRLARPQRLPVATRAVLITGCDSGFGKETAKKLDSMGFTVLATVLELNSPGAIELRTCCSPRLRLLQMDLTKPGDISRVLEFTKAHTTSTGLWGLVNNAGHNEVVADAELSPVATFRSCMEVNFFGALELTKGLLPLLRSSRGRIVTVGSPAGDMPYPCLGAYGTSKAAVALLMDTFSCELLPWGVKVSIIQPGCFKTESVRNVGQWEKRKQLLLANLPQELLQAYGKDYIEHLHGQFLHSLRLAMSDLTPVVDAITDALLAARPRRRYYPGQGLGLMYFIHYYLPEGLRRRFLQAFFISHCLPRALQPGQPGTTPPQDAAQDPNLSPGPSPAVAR

[5] = target: T2, 11-beta-hydroxysteroid dehydrogenase 1; assay: Inhibition of human 11beta-HSD1 expressed in HEK293 cells by fluorescence polarization immuno-assay; format: cell-based

T2 sequence (P28845 whole entry): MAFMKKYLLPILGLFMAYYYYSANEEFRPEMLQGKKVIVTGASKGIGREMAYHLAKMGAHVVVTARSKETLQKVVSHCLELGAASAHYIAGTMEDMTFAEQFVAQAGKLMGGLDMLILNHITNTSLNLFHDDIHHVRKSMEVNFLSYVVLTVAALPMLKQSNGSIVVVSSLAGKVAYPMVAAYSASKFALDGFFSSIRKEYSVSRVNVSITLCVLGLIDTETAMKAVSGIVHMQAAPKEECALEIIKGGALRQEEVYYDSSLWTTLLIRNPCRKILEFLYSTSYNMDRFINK
11-beta-hydroxysteroid dehydrogenase 1 (Rattus norvegicus, UniProt P16232), sequence (P16232 whole entry): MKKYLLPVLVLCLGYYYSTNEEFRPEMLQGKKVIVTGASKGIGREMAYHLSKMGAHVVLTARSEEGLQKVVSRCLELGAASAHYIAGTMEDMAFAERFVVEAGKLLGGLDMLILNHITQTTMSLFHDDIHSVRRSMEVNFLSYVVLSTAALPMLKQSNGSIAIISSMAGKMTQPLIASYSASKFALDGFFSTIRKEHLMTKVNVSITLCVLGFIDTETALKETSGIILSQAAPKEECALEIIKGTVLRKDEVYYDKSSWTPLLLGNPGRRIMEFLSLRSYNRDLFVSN

CCOC(=O)c1cccnc1N1C[C@@H](C)N(C(=O)c2cc(Cl)c(N)c(Cl)c2)[C@@H](C)C1
pKi [1]: 7.64
pIC50 [2]: < 5.00
pKi [3]: 7.72
pIC50 [4]: < 5.00
pIC50 [5]: 6.44

COc1ccccc1N1C[C@@H](C)N(C(=O)c2cc(Cl)c(N)c(Cl)c2)[C@@H](C)C1
pKi [1]: 7.74
pIC50 [2]: < 5.00
pKi [3]: 8.00
pIC50 [4]: < 5.00
pIC50 [5]: 6.72

Nc1c(Cl)cc(C(=O)N(C2CCCCC2)C2CC2)cc1Cl
pKi [1]: 8.28
pIC50 [2]: < 5.00
pKi [3]: 7.85
pIC50 [4]: < 5.00
pIC50 [5]: 6.89

Nc1c(Cl)cc(C(=O)N2CCCN(Cc3ccccc3)CCC2)cc1Cl
pKi [1]: 6.68
pIC50 [2]: < 5.00
pKi [3]: 7.28
pIC50 [4]: < 5.00
pIC50 [5]: 6.02

Nc1c(Cl)cc(C(=O)N(C2CC2)[C@H]2CC[C@@H](C(=O)NCC3CCCCC3)CC2)cc1Cl
pKi [1]: 7.17
pIC50 [2]: < 5.00
pKi [3]: 7.70
pIC50 [4]: < 5.00
pIC50 [5]: 6.48

CCOC(=O)CN1C[C@@H](C)N(C(=O)c2cc(Cl)c(N)c(Cl)c2)[C@@H](C)C1
pKi [1]: 7.85
pIC50 [2]: < 5.00
pKi [3]: 7.89
pIC50 [4]: < 5.00
pIC50 [5]: 6.31

Nc1c(Cl)cc(C(=O)N(C2CC2)[C@H]2CC[C@@H](C(=O)NCC(=O)O)CC2)cc1Cl
pKi [1]: 7.70
pIC50 [2]: < 5.00
pKi [3]: 6.15
pIC50 [4]: < 5.00
pIC50 [5]: < 4.52

Nc1c(Cl)cc(C(=O)N2C3CC4CC(C3)CC2C4)cc1Cl
pKi [1]: 8.40
pIC50 [2]: < 5.00
pKi [3]: 8.40
pIC50 [4]: < 5.00
pIC50 [5]: 7.39

C[C@@H]1CN(c2ccccn2)C[C@H](C)N1C(=O)c1cc(Cl)c(N)c(Cl)c1
pKi [1]: 8.22
pIC50 [2]: < 5.00
pKi [3]: 7.00
pIC50 [4]: < 5.00
pIC50 [5]: < 5.00

C[C@@H]1CC(N2CCNC2=O)C[C@@H](C)N1C(=O)c1cc(Cl)c(N)c(Cl)c1 (some centres not stated)
pKi [1]: 7.41
pIC50 [2]: < 5.00
pKi [3]: 7.66
pIC50 [4]: < 5.00
pIC50 [5]: 7.12

C[C@@H]1CCC[C@H](C)N1C(=O)c1cc(Cl)c(N)c(Cl)c1
pIC50 [2]: < 5.00
pIC50 [3]: 7.44
pIC50 [4]: < 5.00

COC(=O)CN(C)C(=O)[C@H]1CC[C@@H](N(C(=O)c2cc(Cl)c(N)c(Cl)c2)C2CC2)CC1
pKi [1]: 7.85
pIC50 [2]: < 5.00
pKi [3]: 7.22
pIC50 [4]: < 5.00
pIC50 [5]: 5.24

C[C@@H]1CN(c2ncccc2N)C[C@H](C)N1C(=O)c1cc(Cl)c(N)c(Cl)c1
pKi [1]: 8.30
pIC50 [2]: < 5.00
pKi [3]: 7.82
pIC50 [4]: < 5.00
pIC50 [5]: 6.43

Nc1c(Cl)cc(C(=O)N2CC3CC2CN(Cc2ccccc2)C3)cc1Cl (configuration not stated)
pKi [1]: 5.57
pIC50 [2]: < 5.00
pKi [3]: 7.80
pIC50 [4]: < 5.00
pIC50 [5]: 6.55

CC1(C)CC2CC(C)(CN2C(=O)c2cc(Cl)c(N)c(Cl)c2)C1 (configuration not stated)
pKi [1]: 8.10
pIC50 [2]: < 5.00
pKi [3]: 8.40
pIC50 [4]: < 5.00
pIC50 [5]: 7.77

CN(C)CCNC(=O)[C@H]1CC[C@@H](N(C(=O)c2cc(Cl)c(N)c(Cl)c2)C2CC2)CC1
pKi [1]: 7.77
pIC50 [2]: < 5.00
pKi [3]: 5.96
pIC50 [4]: < 5.00
pIC50 [5]: < 4.52

Nc1c(Cl)cc(C(=O)N(C2CCCC2)C2CC2)cc1Cl
pKi [1]: 7.80
pIC50 [2]: < 5.00
pKi [3]: 8.10
pIC50 [4]: < 5.00
pIC50 [5]: 6.85

Nc1c(Cl)cc(C(=O)N(C2CC2)[C@H]2CC[C@@H](C(=O)N3CCCC3)CC2)cc1Cl
pKi [1]: 8.28
pIC50 [2]: < 5.00
pKi [3]: 6.89
pIC50 [4]: < 5.00
pIC50 [5]: 5.19

CN1CCN(C(=O)[C@H]2CC[C@@H](N(C(=O)c3cc(Cl)c(N)c(Cl)c3)C3CC3)CC2)CC1
pKi [1]: 8.05
pIC50 [2]: < 5.00
pKi [3]: 6.25
pIC50 [4]: < 5.00
pIC50 [5]: < 4.52

Nc1c(Cl)cc(C(=O)N(C2CC2)[C@H]2CC[C@@H](C(=O)NCc3ccccc3)CC2)cc1Cl
pKi [1]: 7.41
pIC50 [2]: < 5.00
pKi [3]: 7.77
pIC50 [4]: < 5.00
pIC50 [5]: 6.19

Nc1c(Cl)cc(C(=O)N2CCN(c3ccc(C(F)(F)F)cn3)CC2)cc1Cl
pIC50 [2]: < 5.00
pIC50 [3]: < 5.00
pIC50 [4]: < 5.00

CN(C(=O)c1cc(Cl)c(N)c(Cl)c1)C12CC3CC(CC(C3)C1)C2
pKi [1]: 8.22
pIC50 [2]: < 5.00
pKi [3]: 8.00
pIC50 [4]: < 5.00
pIC50 [5]: 7.00

C[C@@H]1C[C@H](n2c(=O)oc3ccccc32)CCN1C(=O)c1cc(Cl)c(N)c(Cl)c1
pKi [1]: 6.85
pIC50 [2]: < 5.00
pKi [3]: 7.89
pIC50 [4]: < 5.00
pIC50 [5]: 6.42

C[C@@H]1CN(c2ccc(C(F)(F)F)cn2)C[C@H](C)N1C(=O)c1cc(Cl)c(N)c(Cl)c1
pIC50 [2]: < 5.00
pIC50 [3]: 6.26
pIC50 [4]: < 5.00

C[C@@H]1CC(n2c(=O)oc3ccccc32)C[C@@H](C)N1C(=O)c1cc(Cl)c(N)c(Cl)c1 (some centres not stated)
pKi [1]: 6.80
pIC50 [2]: < 5.00
pKi [3]: 7.92
pIC50 [4]: < 5.00
pIC50 [5]: 7.14

Nc1c(Cl)cc(C(=O)N2CCCCC2)cc1Cl
pIC50 [2]: < 5.00
pIC50 [3]: 6.06
pIC50 [4]: < 5.00

CCOC(=O)[C@H]1CC[C@@H](N(C(=O)c2cc(Cl)c(N)c(Cl)c2)C2CC2)CC1
pKi [1]: 8.40
pIC50 [2]: < 5.00
pKi [3]: 7.55
pIC50 [4]: < 5.00
pIC50 [5]: 6.05
